Experimental data taken from patent publication US10189839B2, “Tricyclic imidazole compounds as inhibitors of tryptophan hydroxylase” (ACTELION PHARMACEUTICALS LTD, priority 2013, dated 2019).

Biological target: T1, full length human TPH1 (Homo sapiens, UniProt P17752)
T1 construct: To generate the enzyme, full length human TPH1 is cloned into the plasmid pET20b(+); made in house; host or cells: E. coli
T1 sequence (P17752 1-444): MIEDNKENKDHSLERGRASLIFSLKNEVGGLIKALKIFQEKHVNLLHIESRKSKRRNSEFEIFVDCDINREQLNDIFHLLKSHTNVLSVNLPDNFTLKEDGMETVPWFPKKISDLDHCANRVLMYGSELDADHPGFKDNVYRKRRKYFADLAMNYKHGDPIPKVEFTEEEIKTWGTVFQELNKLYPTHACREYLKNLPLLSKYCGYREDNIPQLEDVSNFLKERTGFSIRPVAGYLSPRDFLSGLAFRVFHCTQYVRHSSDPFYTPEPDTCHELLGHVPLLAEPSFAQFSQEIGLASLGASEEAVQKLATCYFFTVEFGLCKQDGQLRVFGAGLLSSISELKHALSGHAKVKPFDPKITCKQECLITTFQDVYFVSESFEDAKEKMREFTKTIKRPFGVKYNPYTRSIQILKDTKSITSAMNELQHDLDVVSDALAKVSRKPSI
Test: Biochemical in vitro assay using fluorescence readout (TPH1 enzyme activity)
Details: Table 1, mean where determined several times
Source text: Inhibitory activities on tryptophan hydroxylase 1 have been measured for each example compound using the following procedure:
Biochemical In Vitro Assay Using Fluorescence Readout
To generate the enzyme, full length human TPH1 is cloned into the plasmid pET20b(+) (Novagen) and expressed in E. coli. The bacterial cells are ruptured by sonication on ice and the lysate is cleared by centrifugation. The resulting protein in the pellet is re-extracted and TPH1 is purified from the obtained lysate by affinity chromatography using a pterin cosubstrate analog immobilized to the resin of the column. The protein is further purified by size exclusion chromatography to remove protein aggregates. The activity of TPH1 is determined by using a fluorescence assay. The enzyme activity assay is carried out at 15° C. with atmosphere oxygen for the duration of 60 minutes in a volume of 64 μl. The reaction is carried out in a 0.1M Tris-HCl buffer, adjusted to pH 7.6, containing 1 mM DTT, 0.2 mg/ml catalase, 100 μM (±)-6-methyl-5,6,7,8-tetrahydropterine dihydrochloride, 40 μM L-tryptophan, and 40-80 nM of TPH1. The reaction is started by bringing together L-tryptophan with all the other reaction substituents and stopped by quenching with perchloric acid (HClO4). The amount of 5-hydroxy-L-tryptophan produced during the enzymatic reaction is determined by fluorescence readout. Fluorescence, as determined at 540 nm when excited at 300 nm wavelength, increases proportionally to the 5-hydroxy-L-tryptophan formed. Compounds are prepared as 10 mM stock solution in DMSO, then diluted in 384-well plates using DMSO followed by a transfer of the dilutions into the assay plate. Fluorescence is measured for each well and the fluorescence at 540 nm wavelength is compared to the fluorescence of the vehicle in place of compound. Inhibitory activities of example compounds with respect to the TPH1 protein are determined by calculating the IC50 value (the concentration of compound needed to inhibit 50% of the enzyme activity). The calculated IC50 values may fluctuate depending on the daily biochemical assay performance. Fluctuations of this kind are known to those skilled in the art. In the case where IC50 values have been determined several times for the same compound, the mean is given.

| SMILES | IC50 [nM] |
| --- | --- |
| CN(C)C(=O)c1ccc(OCC(=O)N2CCc3nc4n(c3C2c2ccc(Cl)cc2F)CCCC4)c(Cl)n1 (stereo not drawn) [Example 1.1.1, 6-chloro-5-(2-(1-(4-chloro-2-fluorophenyl)-3,4,6,7,8,9-hexahydroimidazo[1,2-a:5,4-c′]dipyridin-2(1H)-yl)-2-oxoethoxy)-N,N-dimethylpicolinamide] | 15 |
| O=C(COc1ccc(N2CCOCC2)nc1Cl)N1CCc2nc3n(c2C1c1ccc(Cl)cc1F)CCCC3 (stereo not drawn) [Example 1.1.2, 1-(1-(4-chloro-2-fluorophenyl)-3,4,6,7,8,9-hexahydro-imidazo[1,2-a:5,4-c′]dipyridin-2(1H)-yl)-2-((2-chloro-6-morpholinopyridin-3-yl)oxy)ethanone] | 7 |
| CS(=O)(=O)Nc1ccc(OCC(=O)N2CCc3nc4n(c3C2c2ccc(Cl)cc2F)CCCC4)c(Cl)n1 (stereo not drawn) [Example 1.1.3, N-(6-chloro-5-(2-(1-(4-chloro-2-fluorophenyl)-3,4,6,7,8,9-hexahydroimidazo[1,2-a:5,4-c′]dipyridin-2(1H)-yl)-2-oxoethoxy)pyridin-2-yl)methanesulfonamide] | 26 |
| CN(C(=O)c1ccc(OCC(=O)N2CCc3nc4n(c3C2c2ccc(Cl)cc2F)CCCC4)c(Cl)n1)C1CC1 (stereo not drawn) [Example 1.1.4, 6-chloro-5-(2-(1-(4-chloro-2-fluorophenyl)-3,4,6,7,8,9-hexahydroimidazo[1,2-a:5,4-c′]dipyridin-2(1H)-yl)-2-oxoethoxy)-N-cyclopropyl-N-methylpicolinamide] | 29 |
| O=C(COc1ccc(-c2ncco2)nc1Cl)N1CCc2nc3n(c2C1c1ccc(Cl)cc1F)CCCC3 (stereo not drawn) [Example 1.1.5, 1-(1-(4-chloro-2-fluorophenyl)-3,4,6,7,8,9-hexahydro-imidazo[1,2-a:5,4-c′]dipyridin-2(1H)-yl)-2-((2-chloro-6-(oxazol-2-yl)pyridin-3-yl)oxy)ethanone] | 21 |
| O=C(NC1CC1)c1ccc(OCC(=O)N2CCc3nc4n(c3C2c2ccc(Cl)cc2F)CCCC4)c(Cl)n1 (stereo not drawn) [Example 1.1.6, 6-chloro-5-(2-(1-(4-chloro-2-fluorophenyl)-3,4,6,7,8,9-hexahydroimidazo[1,2-a:5,4-c′]dipyridin-2(1H)-yl)-2-oxoethoxy)-N-cyclopropylpicolinamide] | 19 |
| CCN(C)C(=O)c1ccc(OCC(=O)N2CCc3nc4n(c3C2c2ccc(Cl)cc2F)CCCC4)c(Cl)n1 (stereo not drawn) [Example 1.1.7, 6-chloro-5-(2-(1-(4-chloro-2-fluorophenyl)-3,4,6,7,8,9-hexahydroimidazo[1,2-a:5,4-c′]dipyridin-2(1H)-yl)-2-oxoethoxy)-N-ethyl-N-methylpicolinamide] | 25 |
| CC(C)N(C)C(=O)c1ccc(OCC(=O)N2CCc3nc4n(c3C2c2ccc(Cl)cc2F)CCCC4)c(Cl)n1 (stereo not drawn) [Example 1.1.8, 6-chloro-5-(2-(1-(4-chloro-2-fluorophenyl)-3,4,6,7,8,9-hexahydroimidazo[1,2-a:5,4-c′]dipyridin-2(1H)-yl)-2-oxoethoxy)-N-isopropyl-N-methylpicolinamide] | 55 |
| CN(c1ccc(OCC(=O)N2CCc3nc4n(c3C2c2ccc(Cl)cc2F)CCCC4)c(Cl)n1)S(C)(=O)=O (stereo not drawn) [Example 1.1.9, N-(6-chloro-5-(2-(1-(4-chloro-2-fluorophenyl)-3,4,6,7,8,9-hexahydroimidazo[1,2-a:5,4-c′]dipyridin-2(1H)-yl)-2-oxoethoxy)pyridin-2-yl)-N-methylmethanesulfonamide] | 25 |
| O=C(COc1ccc(N2CCCS2(=O)=O)nc1Cl)N1CCc2nc3n(c2C1c1ccc(Cl)cc1F)CCCC3 (stereo not drawn) [Example 1.1.10, 1-(1-(4-chloro-2-fluorophenyl)-3,4,6,7,8,9-hexahydro-imidazo[1,2-a:5,4-c′]dipyridin-2(1H)-yl)-2-((2-chloro-6-(1,1-dioxidoisothiazolidin-2-yl)pyridin-3-yl)oxy)-ethanone] | 17 |
| CCc1nc(NS(C)(=O)=O)ccc1OCC(=O)N1CCc2nc3n(c2C1c1ccc(Cl)cc1F)CCCC3 (stereo not drawn) [Example 1.1.11, N-(5-(2-(1-(4-chloro-2-fluorophenyl)-3,4,6,7,8,9-hexahydroimidazo[1,2-a:5,4-c′]dipyridin-2(1H)-yl)-2-oxoethoxy)-6-ethylpyridin-2-yl)methanesulfonamide] | 8 |
| CCc1nc(C(=O)NC2CC2)ccc1OCC(=O)N1CCc2nc3n(c2C1c1ccc(Cl)cc1F)CCCC3 (stereo not drawn) [Example 1.1.12, 5-(2-(1-(4-chloro-2-fluorophenyl)-3,4,6,7,8,9-hexahydroimidazo[1,2-a:5,4-c′]dipyridin-2(1H)-yl)-2-oxoethoxy)-N-cyclopropyl-6-ethylpicolinamide] | 9 |
| COc1nc(NS(C)(=O)=O)ccc1OCC(=O)N1CCc2nc3n(c2C1c1ccc(Cl)cc1F)CCCC3 (stereo not drawn) [Example 1.1.13, N-(5-(2-(1-(4-chloro-2-fluorophenyl)-3,4,6,7,8,9-hexahydroimidazo[1,2-a:5,4-c′]dipyridin-2(1H)-yl)-2-oxoethoxy)-6-methoxypyridin-2-yl)methanesulfonamide] | 347 |
| O=C(COc1ccc(C2CC2)nc1Cl)N1CCc2nc3n(c2C1c1ccc(Cl)cc1F)CCCC3 (stereo not drawn) [Example 1.1.14, 1-(1-(4-chloro-2-fluorophenyl)-3,4,6,7,8,9-hexahydroimidazo[1,2-a:5,4-c′]dipyridin-2(1H)-yl)-2-((2-chloro-6-cyclopropylpyridin-3-yl)oxy)ethanone] | 16 |
| CCc1nc(C)ccc1OCC(=O)N1CCc2nc3n(c2C1c1ccc(Cl)cc1F)CCCC3 (stereo not drawn) [Example 1.1.15, 1-(1-(4-chloro-2-fluorophenyl)-3,4,6,7,8,9-hexahydroimidazo[1,2-a:5,4-c′]dipyridin-2(1H)-yl)-2-((2-ethyl-6-methylpyridin-3-yl)oxy)ethanone] | 39 |
| O=C(NC1CC1)c1ccc(OCC(=O)N2CCc3nc4n(c3[C@@H]2c2ccc(Cl)cc2F)CCCC4)c(Cl)n1 [Example 1.1.16, (S)-6-chloro-5-(2-(1-(4-chloro-2-fluorophenyl)-3,4,6,7,8,9-hexahydroimidazo[1,2-a:5,4-c′]dipyridin-2(1H)-yl)-2-oxoethoxy)-N-cyclopropylpicolinamide] | 12 |
| CS(=O)(=O)Nc1ccc(OCC(=O)N2CCc3nc4n(c3[C@@H]2c2ccc(Cl)cc2F)CCCC4)c(Cl)n1 [Example 1.1.17, (S)-N-(6-chloro-5-(2-(1-(4-chloro-2-fluorophenyl)-3,4,6,7,8,9-hexahydroimidazo[1,2-a:5,4-c′]dipyridin-2(1H)-yl)-2-oxoethoxy)pyridin-2-yl)methanesulfonamide] | 23 |
| CCc1nc(NS(C)(=O)=O)ccc1OCC(=O)N1CCc2nc3n(c2[C@@H]1c1ccc(Cl)cc1F)CCCC3 [Example 1.1.18, (S)-N-(5-(2-(1-(4-chloro-2-fluorophenyl)-3,4,6,7,8,9-hexahydroimidazo[1,2-a:5,4-c′]dipyridin-2(1H)-yl)-2-oxoethoxy)-6-ethylpyridin-2-yl)methanesulfonamide] | 8 |
| CS(=O)(=O)Nc1ccc(OC2(C(=O)N3CCc4nc5n(c4C3c3ccc(Cl)cc3F)CCCC5)CC2)c(Cl)n1 (stereo not drawn) [Example 1.1.19, N-(6-chloro-5-(1-(1-(4-chloro-2-fluorophenyl)-1,2,3,4,6,7,8,9-octahydroimidazo[1,2-a:5,4-c′]dipyridine-2-carbonyl)cyclopropoxy)pyridin-2-yl)methanesulfonamide] | 58 |
| CS(=O)(=O)Nc1ccc(OCC(=O)N2CCc3nc4n(c3C2c2ccc(Cl)cc2F)CCCC4)c(C2CC2)n1 (stereo not drawn) [Example 1.1.20, N-(5-(2-(1-(4-chloro-2-fluorophenyl)-3,4,6,7,8,9-hexahydroimidazo[1,2-a:5,4-c′]dipyridin-2(1H)-yl)-2-oxoethoxy)-6-cyclopropylpyridin-2-yl)methanesulfonamide] | 21 |
| CN(C)c1ccc(OCC(=O)N2CCc3nc4n(c3C2c2ccc(Cl)cc2F)CCCC4)c(Cl)n1 (stereo not drawn) [Example 1.1.21, 1-(1-(4-chloro-2-fluorophenyl)-3,4,6,7,8,9-hexahydroimidazo[1,2-a:5,4-c′]dipyridin-2(1H)-yl)-2-((2-chloro-6-(dimethylamino)pyridin-3-yl)oxy)ethan-1-one] | 13 |
